Reference: patent US20130331389A1, “Methods and Compositions for Cardiomyocyte Replenishment by Endogenous and Progenitor Stem Cells” (NATIONAL CHENG KUNG UNIVERSITY, priority 2012, published 2013)

Tests used:
[1] = tested on: MMP2, MMP9, TNF-α, IL-1β and IL-6; experiment: Quantitative RT-PCR of inflammatory cytokines in infarct region; assay type: in vivo, mouse; settings: young mice
Protocol: (§1) To induce Cre recombination to achieve GFP labeling of cardiomyocytes, tamoxifen (Sigma) was dissolved in sunflower oil (Sigma) at a concentration of 5 mg/ml. The tamoxifen solution was injected intraperitoneally into M/Z mice daily at a dosage of 40 μg per 1 g body weight for 14 days, and the same dosage was injected twice daily for short-term labeling using methods known in the art (Laugwitz, K.-L. et al. Nature 433, 647-653 (2005)). All experimental conditions were optimized prior to the PGE2, indomethacin and TGF-β Type I Receptor Kinase Inhibitor II (ALK5 Inhibitor II, ALK5i, Merck) treatments. The mice treated with PGE2 or PGI2 (Vegiopoulos, A. et al. Science 328, 1158-1161 (2010)) (both from Sigma) were injected intraperitoneally with 3.33 ng of drug per 1 g of body weight dissolved in absolute ethanol twice daily. […]
(§2) The total RNA isolated from the ischemic region or remote area of MI hearts was reverse transcribed using the SuperScript III (Invitrogen) system according to the manufacturer's protocol. For quantitative PCR, the SYBR Green reagent (Maestrogen) was used according to the manufacturer's protocol. The analysis of relative gene expression was performed using the 2̂[−delta delta Ct] method and sequence-specific primers designed for semi-quantitative PCR and real-time RT-PCR (FIG. 11).

[2] = tested on: Sca-1+ cells; experiment: Flow cytometry of Sca-1+/GFP+ cardiac small cells on day 3 post-MI; assay type: in vivo, mouse; settings: tamoxifen 80 μg/g per day for 3 days, P<0.001
Protocol: as §1, with “daily. For the indomethacin treatment, mice were fed with water containing indomethacin (Sigma, 15 μg/ml) for different periods of time. The indomethacin-containing water was changed every 3 days. The mice subjected to the celecoxib (Lyons, T. R. et al. Nat. Med. 17, 1109-1115 (2011)) (Sigma) treatment were injected intraperitoneally with 5 μg of drug per 1 g of body weight daily. For ALK5i treatment, aged mice were injected intraperitoneally once per day with 1 μg of drug per 1 g of body weight one day before surgery and continuously until day 10 post-MI.” for “daily.”

[3] = tested on: Nkx2.5; experiment: Quantitative RT-PCR of Nkx2.5 in MI heart and in isolated cardiac Sca-1+ cells; assay type: in vivo, mouse
Protocol: as §1
as §2, with “11). […]” for “11).”

[4] = tested on: cardiomyocyte-depleted small cells; experiment: Culture of cardiomyocyte-depleted small cells, cTnT immunocytochemistry; assay type: cell-based, mouse; settings: PGE2 10 μm for three days
Protocol: Cardiomyocyte-depleted cardiac small cells were prepared as previously described with some modifications (Oh, H. et al. Proc. Natl. Acad. Sci. USA 100, 12313-12318 (2003); and Pfister, O. et al. Circ. Res. 97, 52-61 (2005)). Specifically, instead of using a 70 μm and then a 45 μm strainer to isolate the cardiomyocyte-depleted cardiac small cells, the cells were filtered through a 45 μm strainer directly after enzyme digestion. The minced heart tissue was digested with 0.1% collagenase B (Roche Molecular Biochemicals), 2.4 U/ml dispase II (Roche Molecular Biochemicals) and 2.5 mmol/L CaCl2 at 37° C. for 30 minutes and then filtered through a 45-μm filter. For isolation of cardiac Sca-1^+ cells, the cardiac small cells were incubated with the Phycoerythrin (PE)-conjugated Sca-1^+ antibodies (BD Bioscience) at 4° C. for 30 minutes. The PE-labeled Sca-1^+ cells were then sorted by the magnetic particles against PE (BD Biosciences). Incubation of cardiomyocyte-depleted small cells with anti-Sca-1-PE antibody and magnetic cell sorting were omitted for isolation of Sca-1^+ cells from the Sca-1-GFP transgenic mice. After isolation, the cells were fixed in 2% paraformaldehyde for 20 minutes and followed by 1 hour blocking in PBS with 1% BSA. […]

CCCCC[C@H](O)/C=C/C1C(O)CC(=O)C1C/C=C\CCCC(=O)O (stereo partly drawn) [PGE2, (5Z,11α,13E,15S)-7-[3-hydroxy-2-(3-hydroxyoct-1-enyl)-5-oxo-cyclopentyl]hept-5-enoic acid]
expression of inflammatory cytokines acting downstream of PGE2 [1]: further enhanced
number of Sca-1+/GFP+ cells [2]: expanding
expression of Nkx2.5 in Sca-1+ cells ([3]; cardiac Sca-1+ cells isolated on day 3 after injury): elevated
expression of Nkx2.5 in the MI heart ([3]; young mice, fold change normalized to sham): enhances
mature sarcomeric structure, as determined by the expression of cTnT [4]: seen
